# What was measured:
# [1] = Identification of violacein metabolites in HLMs by LC-QTOF; assay type: in vitro ADME, human; conditions: all samples after 120 min of reaction, 105 µM violacein, 5 mg/mL protein
# Description: (§1) The metabolism of violacein was investigated using HLMs and RLMs, by incubating the samples for 120 min under four conditions (n = 1): zero sample, phase I-only incubation, phase I and II incubation, and phase II-only incubation, as described by Godoi et al..
# (§2) For all samples, 25 µL of the 843 µM violacein stock solution was added to propylene tubes and evaporated to dryness under a nitrogen stream. The dried residue was then reconstituted with 2 µL of methanol, ensuring that the final organic solvent concentration remained below 1% to minimize any potential impact on microsomal activity, as described by Jia et al..
# (§3) To assess phase I metabolism, 148 μL of an NADPH-regenerating system containing 1.1 mM NADP+, 10 mM glucose-6-phosphate, 1 U/mL glucose-6-phosphate dehydrogenase, 5 mM sodium citrate, and 66 mM magnesium chloride in 100 mM phosphate buffer (pH 7.4) were added to the tubes. The solutions were pre-incubated for 5 min at 37 °C and 300 rpm in an MTC 100 thermo shaker incubator, and metabolic reactions were initiated by adding 50 μL of HLMs or RLMs (20 mg/mL), to yield final concentrations of 105 µM violacein and 5 mg of microsomal protein/mL. […]
# (§4) The acquired chromatograms and mass spectra were analyzed using Insight Explore software version 1.0.0.0 (Shimadzu, Kyoto, Japan). […]
# [2] = Identification of violacein metabolites in RLMs by LC-QTOF; assay type: in vitro ADME, rat; conditions: all samples after 120 min of reaction, 105 µM violacein, 5 mg/mL protein
# Description: as §1, §2, §3, §4
# [3] = system: experimental autoimmune encephalomyelitis (EAE); design: method as in PMID 25938431; conditions: EAE mice, three days of treatment, intraperitoneal 3.5 mg/kg; reduced from 4; cited from earlier work
structure (smiles),measurement,setting,value
O=C1NC(c2c[nH]c3ccc(O)cc23)=C/C1=C1\C(=O)Nc2ccccc21 [violacein],Violacein metabolized,[1],30%
same,Violacein metabolized,[2],Approximately 50%
same,Maximum clinical score,[3],2
